Assay results as given in patent US10766903B2 (ALMAC DISCOVERY LIMITED, priority 2016, dated 2020).
pIC50: −log10 of the molar value. In brackets after ≈: the same amount, converted by molar mass.

Assays:
USP7 = USP7 (Homo sapiens (Human), UniProt Q93009); assay: USP7 fluorescence polarisation (FP) biochemical assay, ubiquitin-Lys-TAMRA substrate; conditions: Table 4, biochemical assay; average of at least duplicate experiments; read-out: USP7 IC50
Procedure, shortened: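 Full-length His6-USP7 (2.5 nM) incubated ± inhibitor (8-point dilutions, 200 to 0.1 μM before addition) in 50 mM HEPES pH 7.2, 150 mM NaCl, 0.5 mM EDTA, 5 mM DTT, 0.05% BSA, 0.05% CHAPS. Ubiquitin-Lys-TAMRA cleavage followed by FP (ex 530/em 575 nm) every 15 min for 1.5 h; normalised to no-compound control.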

Kinetic solubility assay = format: physicochemical; conditions: PBS buffer pH 7.4 with 2% DMSO, aqueous buffer, kinetic from dmso stock, PBS buffer pH 7.4, 2% DMSO, RT, read-out: KSol
Method: Samples were prepared by adding 4 μL of the 10 mM compound DMSO stock solutions into 196 μL of PBS buffer pH 7.4 in the 96 well filter plates, yielding a compound concentration of 200 μM and 2% DMSO. The PBS buffer pH7.4 was prepared by Genentech media lab. Filter plates were sealed with aluminum sealing film and shaken at RT at 1000 rpm. After 24 h, the solutions were filtered into a clean 96 well plates utilizing a vacuum manifold. After filtration, some precipitate was often observed at the bottom of the filtration plate wells. Most of the precipitates appeared to be crystalline under a polarizing light microscope. […]
Samples were detected and analyzed using UV 254 nm and CLND. UV 254 nm is used primarily to confirm the sample purity but in rare cases, is also used to quantify the concentration of compounds with no nitrogens, where additional work was done to create a compound specific calibration curve. […] Sample quantification was accomplished by CLND peak intensity, the calibration curve, and the number of nitrogen contained in the compound. One calibration curve of caffeine was used for solubility quantitative determination. […] The number of nitrogens in a compound used for this quantification needs to be corrected for the actual configuration of the nitrogen in the compound. […]

HCT116 cells = assay: p53, p21 and MDM2 protein levels by western blotting in HCT116; format: cell-based; conditions: HCT116, 24 h treatment
SJSA-1 cells = assay: p53, p21 and MDM2 protein levels by western blotting in SJSA-1; format: cell-based; conditions: SJSA-1, 24 h treatment
Method: This osteosarcoma cell line with a known functional p53 pathway was used as a second model for these experiments. Cells were treated as described above and samples analysed by western blotting as indicated. Similar observations were made with stabilisation of p53, p21 induction and MDM2 decreased levels in a concentration dependent manner.
p53, p21 and MDM2 Protein Levels

Chain of USP7 (Q93009 whole entry): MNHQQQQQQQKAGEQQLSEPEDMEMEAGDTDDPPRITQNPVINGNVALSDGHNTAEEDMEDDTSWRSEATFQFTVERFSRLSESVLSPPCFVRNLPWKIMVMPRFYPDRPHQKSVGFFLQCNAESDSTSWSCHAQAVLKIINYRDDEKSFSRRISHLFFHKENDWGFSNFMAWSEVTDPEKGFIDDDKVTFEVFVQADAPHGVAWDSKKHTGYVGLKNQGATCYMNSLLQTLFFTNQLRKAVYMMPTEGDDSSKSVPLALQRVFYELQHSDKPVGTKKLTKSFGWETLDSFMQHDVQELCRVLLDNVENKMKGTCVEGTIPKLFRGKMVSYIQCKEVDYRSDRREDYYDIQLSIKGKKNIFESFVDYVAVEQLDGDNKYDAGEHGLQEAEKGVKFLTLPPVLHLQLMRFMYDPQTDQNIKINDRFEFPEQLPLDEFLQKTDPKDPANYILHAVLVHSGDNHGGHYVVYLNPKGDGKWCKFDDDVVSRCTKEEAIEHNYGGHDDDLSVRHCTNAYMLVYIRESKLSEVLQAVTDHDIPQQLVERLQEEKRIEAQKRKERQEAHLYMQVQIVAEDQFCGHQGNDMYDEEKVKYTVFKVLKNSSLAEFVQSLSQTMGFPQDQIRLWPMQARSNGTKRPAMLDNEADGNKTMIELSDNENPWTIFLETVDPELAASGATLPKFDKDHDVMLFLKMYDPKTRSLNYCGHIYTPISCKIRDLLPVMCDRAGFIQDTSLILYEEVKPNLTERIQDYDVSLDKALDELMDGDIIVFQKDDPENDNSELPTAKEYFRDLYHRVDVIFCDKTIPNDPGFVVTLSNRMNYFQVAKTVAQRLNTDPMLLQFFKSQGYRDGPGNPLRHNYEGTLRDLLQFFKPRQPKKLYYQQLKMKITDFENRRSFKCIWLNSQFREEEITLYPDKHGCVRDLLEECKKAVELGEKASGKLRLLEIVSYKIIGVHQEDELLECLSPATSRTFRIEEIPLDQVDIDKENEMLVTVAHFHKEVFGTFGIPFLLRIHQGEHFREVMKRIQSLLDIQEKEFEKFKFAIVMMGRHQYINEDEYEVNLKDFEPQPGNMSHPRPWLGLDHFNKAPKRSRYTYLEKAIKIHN

pIC50 (USP7)	solubility kinetic at 24 h (Kinetic solubility assay)	Compound	p53, p21 and MDM2 protein levels (HCT116 cells)	p53, p21 and MDM2 protein levels (SJSA-1 cells)
6.00 to 6.60	173 µM (≈ 76.3 µg/mL)	CC1(C(=O)N2CCC(O)(Cn3cnc4c(cc(Cl)n4-c4ccccc4)c3=O)CC2)CC1 [Example 200, 6-Chloro-3-((4-hydroxy-1-(1-methylcyclopropanecarbonyl)piperidin-4-yl)methyl)-7-phenyl-3H-pyrrolo[2,3-d]pyrimidin-4(7H)-one]	–	–
–	–	C[C@H](CC(=O)N1CCC(O)(Cn2cnc3c(-c4cccc(N)c4)n(C)nc3c2=O)CC1)c1ccccc1 [Example 29, (R)-3-(3-Aminophenyl)-6-((4-hydroxy-1-(3-phenylbutanoyl)piperidin-4-yl)methyl)-2-methyl-2H-pyrazolo[4,3-d]pyrimidin-7(6H)-one]	dose-dependent p53 stabilisation, p21 induction and concomitant decrease in MDM2 levels	dose-dependent p53 stabilisation, p21 induction and concomitant decrease in MDM2 levels
